Measured values published in ChEMBL document CHEMBL1909294, “Translating clinical findings into knowledge in drug safety evaluation--drug induced liver injury prediction system (DILIps)” (PLoS Comput Biol, 2011).

Tests used:
Hepatotoxicity [1] = tested on: Hepatotoxicity;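 as to HepSE elevated liver function tests: hepatic side effect score for raised liver function tests, as recorded in the DILIps training set used for predicting drug-induced liver injury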; as to HepSE hepatic failure: call rule not given here;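 as to HepSE hepatic necrosis: score of hepatic side effects for hepatic necrosis, drawn from the training data of DILIps, a prediction system for drug-induced liver injury; call rule not given here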;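 as to HepSE hepatomegaly: hepatic side effect score for hepatomegaly, taken from the training set of the DILIps drug-induced liver injury prediction system; call rule not given here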;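 as to HepSE jaundice: Jaundice-related hepatic side-effect score drawn from the training data of the DILIps (drug-induced liver injury prediction system); call rule not given here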;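 as to HepSE liver function tests abnormal: hepatic side effect score taken from the DILIps (drug-induced liver injury prediction system) training data, here covering abnormal liver function test findings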
Hepatotoxicity [2] = tested on: Hepatotoxicity; remark: listed apart in the source;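 as to HepSE elevated liver function tests: hepatic side effect score for raised liver function tests, as recorded in the DILIps training set used for predicting drug-induced liver injury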; as to HepSE hepatic failure: call rule not given here;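 as to HepSE hepatic necrosis: score of hepatic side effects for hepatic necrosis, drawn from the training data of DILIps, a prediction system for drug-induced liver injury; call rule not given here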;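 as to HepSE hepatomegaly: hepatic side effect score for hepatomegaly, taken from the training set of the DILIps drug-induced liver injury prediction system; call rule not given here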;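 as to HepSE jaundice: Jaundice-related hepatic side-effect score drawn from the training data of the DILIps (drug-induced liver injury prediction system); call rule not given here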;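 as to HepSE liver function tests abnormal: hepatic side effect score taken from the DILIps (drug-induced liver injury prediction system) training data, here covering abnormal liver function test findings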
Hepatotoxicity [3] = tested on: Hepatotoxicity; remark: listed apart in the source;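 as to HepSE elevated liver function tests: hepatic side effect score for raised liver function tests, as recorded in the DILIps training set used for predicting drug-induced liver injury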; as to HepSE hepatic failure: call rule not given here;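 as to HepSE hepatic necrosis: score of hepatic side effects for hepatic necrosis, drawn from the training data of DILIps, a prediction system for drug-induced liver injury; call rule not given here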;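 as to HepSE hepatomegaly: hepatic side effect score for hepatomegaly, taken from the training set of the DILIps drug-induced liver injury prediction system; call rule not given here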;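 as to HepSE jaundice: Jaundice-related hepatic side-effect score drawn from the training data of the DILIps (drug-induced liver injury prediction system); call rule not given here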;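 as to HepSE liver function tests abnormal: hepatic side effect score taken from the DILIps (drug-induced liver injury prediction system) training data, here covering abnormal liver function test findings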
Hepatotoxicity [4] = tested on: Hepatotoxicity; remark: listed apart in the source;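 as to HepSE elevated liver function tests: hepatic side effect score for raised liver function tests, as recorded in the DILIps training set used for predicting drug-induced liver injury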; as to HepSE hepatic failure: call rule not given here;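 as to HepSE hepatic necrosis: score of hepatic side effects for hepatic necrosis, drawn from the training data of DILIps, a prediction system for drug-induced liver injury; call rule not given here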;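 as to HepSE hepatomegaly: hepatic side effect score for hepatomegaly, taken from the training set of the DILIps drug-induced liver injury prediction system; call rule not given here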;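 as to HepSE jaundice: Jaundice-related hepatic side-effect score drawn from the training data of the DILIps (drug-induced liver injury prediction system); call rule not given here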;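 as to HepSE liver function tests abnormal: hepatic side effect score taken from the DILIps (drug-induced liver injury prediction system) training data, here covering abnormal liver function test findings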
Hepatotoxicity [5] = tested on: Hepatotoxicity; remark: listed apart in the source; as to HepSE hepatic failure: call rule not given here
Hepatotoxicity [6] = tested on: Hepatotoxicity; remark: listed apart in the source; as to HepSE hepatic failure: call rule not given here
Hepatotoxicity [7] = tested on: Hepatotoxicity; remark: listed apart in the source
Hepatotoxicity [8] = tested on: Hepatotoxicity; remark: listed apart in the source
Hepatotoxicity [9] = tested on: Hepatotoxicity; remark: listed apart in the source
Hepatotoxicity [10] = tested on: Hepatotoxicity; remark: listed apart in the source
Hepatotoxicity [11] = tested on: Hepatotoxicity; remark: listed apart in the source
Hepatotoxicity [12] = tested on: Hepatotoxicity; remark: listed apart in the source
Hepatotoxicity [13] = tested on: Hepatotoxicity; remark: listed apart in the source
Hepatotoxicity [14] = tested on: Hepatotoxicity; remark: listed apart in the source

Molecule	HepSE_liver function tests abnormal (Hepatotoxicity [1])	HepSE_hepatic necrosis (Hepatotoxicity [2])	HepSE_bilirubinemia (Hepatotoxicity [3])	HepSE_hepatic failure (Hepatotoxicity [4])	HepSE_jaundice (Hepatotoxicity [5])	HepSE_hepatomegaly (Hepatotoxicity [6])	HepSE_hepatitis (Hepatotoxicity [7])	HepSE_elevated liver function tests (Hepatotoxicity [8])	HepSE_Combined Scores (Hepatotoxicity [9])	HepSE_cholecystitis (Hepatotoxicity [10])	HepSE_liver disease (Hepatotoxicity [11])	HepSE_cholelithiasis (Hepatotoxicity [12])	HepSE_cirrhosis (Hepatotoxicity [13])	HepSE_liver fatty (Hepatotoxicity [14])
CCCCCCCCCCCCCCCCCCCCCCO [DOCOSANOL]	0	0	0	0	0	0	0	0	0	0	0	0	0	0
CO[C@H]1C[C@@H]2CC[C@@H](C)[C@@](O)(O2)C(=O)C(=O)N2CCCC[C@H]2C(=O)O[C@H]([C@H](C)C[C@@H]2CC[C@@H](O)[C@H](OC)C2)CC(=O)[C@H](C)/C=C(\C)[C@@H](O)[C@@H](OC)C(=O)[C@H](C)C[C@H](C)/C=C/C=C/C=C/1C [SIROLIMUS]	1	1	1	0	0	0	0	0	3	0	0	0	0	0
C[C@@H](c1ncncc1F)[C@](O)(Cn1cncn1)c1ccc(F)cc1F [VORICONAZOLE]	1	0	1	1	1	1	1	1	10	1	1	1	0	0
O=C1Nc2ccc(Cl)cc2[C@@](C#CC2CC2)(C(F)(F)F)O1 [EFAVIRENZ]	0	0	0	1	1	1	1	0	4	0	0	0	0	0
C[C@]12CCC(=O)C=C1CC[C@@H]1[C@@H]2[C@@H](O)C[C@@]2(C)[C@H]1CC[C@]2(O)C(=O)CO [HYDROCORTISONE]	0	0	0	0	0	1	0	0	1	0	0	0	0	0
CC1(C)O[C@@H]2[C@@H](CO[C@@]3(COS(N)(=O)=O)OC(C)(C)O[C@@H]23)O1 [TOPIRAMATE]	0	0	0	1	0	0	1	0	2	0	0	0	0	0
CC(C)(C)NC(=O)[C@H]1CC[C@H]2[C@@H]3CC[C@H]4NC(=O)C=C[C@]4(C)[C@H]3CC[C@]12C [FINASTERIDE]	0	0	0	0	0	0	0	0	0	0	0	0	0	0
FC(F)OC(F)(F)C(F)Cl (stereo not drawn)	0	1	0	1	0	0	0	0	2	0	0	0	0	0
COc1cc(NS(C)(=O)=O)ccc1Nc1c2ccccc2nc2ccccc12 [AMSACRINE]	0	0	0	1	1	0	1	0	3	0	0	0	0	0
O=C(O[C@@H]1C[C@@H]2C[C@H]3C[C@H](C1)N2CC3=O)c1c[nH]c2ccccc12 [DOLASETRON]	0	0	1	0	0	0	0	0	2	0	1	0	0	0
CCN1CCN(C(=O)N[C@@H](C(=O)N[C@@H]2C(=O)N3[C@@H]2SC(C)(C)[C@@H]3C(=O)O)c2ccccc2)C(=O)C1=O [PIPERACILLIN]	0	0	1	0	0	0	1	0	3	0	1	0	0	0
CC[C@@H](CO)NC(=O)[C@@H]1C=C2c3cccc4c3c(cn4C)C[C@H]2N(C)C1 [METHYSERGIDE]	0	0	0	0	0	0	0	0	0	0	0	0	0	0
COc1cc(CC2c3c(cc(OC)c(OC)c3OC)CC[N+]2(C)CCCOC(=O)CCC(=O)OCCC[N+]2(C)CCc3cc(OC)c(OC)c(OC)c3C2Cc2cc(OC)c(OC)c(OC)c2)cc(OC)c1OC (stereo not drawn) [DOXACURIUM]	0	0	0	0	0	0	0	0	0	0	0	0	0	0
GENTAMICIN	0	0	0	0	0	1	0	0	1	0	0	0	0	0
N[C@@H](Cc1ccc(N(CCCl)CCCl)cc1)C(=O)O	1	0	0	0	1	0	1	0	3	0	0	0	0	0
O=NN(CCCl)C(=O)NCCCl [CARMUSTINE]	1	0	0	0	0	0	0	0	1	0	0	0	0	0
CC(=O)O[C@@]12CO[C@@H]1C[C@H](O)[C@@]1(C)C(=O)[C@H](O)C3=C(C)[C@@H](OC(=O)[C@H](O)[C@@H](NC(=O)OC(C)(C)C)c4ccccc4)C[C@@](O)([C@@H](OC(=O)c4ccccc4)[C@H]21)C3(C)C.O.O.O [DOCETAXEL]	1	0	1	1	1	0	1	1	6	0	0	0	0	0
